According to ChEMBL document CHEMBL4610123, “Structure-Based Drug Discovery of N-((R)-3-(7-Methyl-1H-indazol-5-yl)-1-oxo-1-(((S)-1-oxo-3-(piperidin-4-yl)-1-(4-(pyridin-4-yl)piperazin-1-yl)propan-2-yl)amino)propan-2-yl)-2'-oxo-1',2'-dihydrospiro[piperidine-4,4'-pyrido[2,3-d][1,3]oxazine]-1-carboxamide (HTL22562): A Calcitonin Gene-Related …” (J Med Chem, 2020):
Values after ≈ are worked out from the molar mass of the structure shown.

What was measured:
[1] = molecular target: T1, Calcitonin-gene-related peptide receptor, CALCRL/RAMP1 (Homo sapiens, UniProt O60894+Q16602); assay: Displacement of [3H]telcagepant from recombinant human CLR/RAMP1 expressed in Sf21 insect cell membranes measured after 60 mins by microbeta scintillation counting method
T1 sequence (O60894 whole entry): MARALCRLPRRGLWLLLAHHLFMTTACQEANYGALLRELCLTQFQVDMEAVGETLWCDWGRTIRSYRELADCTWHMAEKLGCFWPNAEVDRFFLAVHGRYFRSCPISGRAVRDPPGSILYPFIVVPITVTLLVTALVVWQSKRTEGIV
T1 sequence (Q16602 whole entry): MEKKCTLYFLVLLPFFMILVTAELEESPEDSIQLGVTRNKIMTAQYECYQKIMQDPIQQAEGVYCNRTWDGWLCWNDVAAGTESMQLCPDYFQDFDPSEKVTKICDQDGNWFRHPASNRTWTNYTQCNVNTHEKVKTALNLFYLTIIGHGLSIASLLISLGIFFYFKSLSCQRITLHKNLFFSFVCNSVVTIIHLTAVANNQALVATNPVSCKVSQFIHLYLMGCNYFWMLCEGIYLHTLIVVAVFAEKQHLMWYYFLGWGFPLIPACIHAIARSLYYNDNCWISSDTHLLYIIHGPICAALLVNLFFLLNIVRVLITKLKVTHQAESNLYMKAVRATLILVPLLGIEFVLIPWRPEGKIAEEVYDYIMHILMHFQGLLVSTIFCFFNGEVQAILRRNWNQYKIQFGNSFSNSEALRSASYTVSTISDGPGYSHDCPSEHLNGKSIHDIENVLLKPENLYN

[2] = molecular target: T1, Calcitonin-gene-related peptide receptor, CALCRL/RAMP1; assay: Antagonist activity at human CGRP receptor in human SK-N-MC cells assessed as inhibition of CGRP-induced cAMP production preincubated for 30 mins followed by CGRP addition and measured after 30 mins by HTRF assay; type: functional, cell-based
[3] = Binding affinity to cynomolgus monkey CGRP receptor; parameters: species or system Macaca fascicularis
Canis lupus familiaris = species: Canis lupus familiaris; assay: Antagonist activity at dog CGRP receptor
[4] = molecular target: Calcitonin-gene-related peptide receptor; CALCRL/RAMP1 (Rattus norvegicus) (UniProt Q63118+Q9JJ74); assay: Antagonist activity at rat CGRP receptor; type: protein-complex assay
hERG (KCNH2) = hERG (KCNH2) (Homo sapiens, UniProt Q12809); assay: Inhibition of human ERG at 300 uM relative to control
Chain of hERG (KCNH2) (Q12809 whole entry): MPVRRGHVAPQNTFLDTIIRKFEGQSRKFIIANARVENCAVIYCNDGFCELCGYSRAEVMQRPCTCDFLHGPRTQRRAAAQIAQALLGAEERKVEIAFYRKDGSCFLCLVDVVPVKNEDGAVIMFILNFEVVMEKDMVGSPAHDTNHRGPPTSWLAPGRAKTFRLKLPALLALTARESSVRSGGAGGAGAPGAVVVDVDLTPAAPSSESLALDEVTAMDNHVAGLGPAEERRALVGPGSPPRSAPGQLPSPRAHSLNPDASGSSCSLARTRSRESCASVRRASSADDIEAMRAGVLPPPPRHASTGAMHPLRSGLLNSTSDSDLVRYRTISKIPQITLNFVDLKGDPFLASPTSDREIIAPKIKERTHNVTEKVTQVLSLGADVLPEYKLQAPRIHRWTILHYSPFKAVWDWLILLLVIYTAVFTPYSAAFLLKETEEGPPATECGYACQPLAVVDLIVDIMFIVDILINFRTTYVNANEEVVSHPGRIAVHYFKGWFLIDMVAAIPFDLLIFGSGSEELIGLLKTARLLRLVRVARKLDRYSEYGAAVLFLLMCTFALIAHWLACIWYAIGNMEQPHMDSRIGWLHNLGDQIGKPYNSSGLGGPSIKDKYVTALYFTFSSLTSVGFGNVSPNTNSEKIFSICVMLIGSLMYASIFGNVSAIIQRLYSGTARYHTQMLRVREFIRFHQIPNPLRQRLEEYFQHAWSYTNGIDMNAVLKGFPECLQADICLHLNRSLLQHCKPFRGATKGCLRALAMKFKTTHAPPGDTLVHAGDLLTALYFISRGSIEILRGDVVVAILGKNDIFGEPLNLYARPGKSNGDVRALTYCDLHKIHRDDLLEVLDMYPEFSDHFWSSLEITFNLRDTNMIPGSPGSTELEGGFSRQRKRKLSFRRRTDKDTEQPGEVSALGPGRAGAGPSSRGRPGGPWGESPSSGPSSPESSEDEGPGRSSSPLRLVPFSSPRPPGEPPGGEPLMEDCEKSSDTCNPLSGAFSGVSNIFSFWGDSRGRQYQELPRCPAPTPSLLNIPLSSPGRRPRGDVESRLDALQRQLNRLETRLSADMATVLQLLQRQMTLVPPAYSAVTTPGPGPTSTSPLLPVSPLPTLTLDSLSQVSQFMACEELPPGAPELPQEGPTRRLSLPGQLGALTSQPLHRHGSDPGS

[5] = Efflux ratio of apparent permeability in MDCK cells; type: ADME, cell-based, Canis lupus familiaris; details: dog
[6] = Stability of the compound in pH 3 solution at 50 degC assessed as loss of purity after 1 week; type: physicochemical; details: read-out: Drug degradation
[7] = Half life in cynomolgus monkey hepatocytes; type: ADME, cell-based, Macaca fascicularis, Hepatocyte
[8] = molecular target: T2, Muscarinic acetylcholine receptor M2 (Homo sapiens) (UniProt P08172); assay: Antagonist activity at CHRM2 (unknown origin) at 10 uM relative to control
T2 sequence (whole entry): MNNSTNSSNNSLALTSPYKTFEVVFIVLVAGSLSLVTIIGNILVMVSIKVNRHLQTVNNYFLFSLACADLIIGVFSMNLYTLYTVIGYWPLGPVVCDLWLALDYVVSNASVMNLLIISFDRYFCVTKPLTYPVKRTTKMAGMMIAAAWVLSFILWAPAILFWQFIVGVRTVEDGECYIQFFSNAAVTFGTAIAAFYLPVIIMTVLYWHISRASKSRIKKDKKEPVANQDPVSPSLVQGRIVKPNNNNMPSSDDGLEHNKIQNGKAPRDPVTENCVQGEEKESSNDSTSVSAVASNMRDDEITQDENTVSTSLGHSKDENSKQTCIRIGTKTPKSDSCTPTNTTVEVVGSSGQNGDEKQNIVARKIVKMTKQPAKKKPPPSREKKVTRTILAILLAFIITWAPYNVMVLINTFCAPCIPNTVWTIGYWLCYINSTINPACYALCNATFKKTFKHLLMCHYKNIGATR

[9] = molecular target: T3, Mas-related G-protein coupled receptor member X2 (Homo sapiens, UniProt Q96LB1); assay: Agonist activity at MRGPX2 (unknown origin)
T3 sequence (Q96LB1 whole entry): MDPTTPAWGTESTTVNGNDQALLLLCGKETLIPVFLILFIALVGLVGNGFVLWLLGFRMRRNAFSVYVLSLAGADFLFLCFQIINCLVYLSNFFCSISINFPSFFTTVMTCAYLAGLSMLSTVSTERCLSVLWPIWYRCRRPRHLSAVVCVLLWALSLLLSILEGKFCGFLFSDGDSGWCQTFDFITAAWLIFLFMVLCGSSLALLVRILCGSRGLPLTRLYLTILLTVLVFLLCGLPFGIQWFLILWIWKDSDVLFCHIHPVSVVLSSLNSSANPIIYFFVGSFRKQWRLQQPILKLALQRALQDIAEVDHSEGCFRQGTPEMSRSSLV

[10] = Protein binding in rat plasma by high-throughput dialysis method; type: ADME, cell-free; details: read-out: PPB (converted)
[11] = Protein binding in dog plasma by high-throughput dialysis method; type: ADME, cell-free, Canis lupus familiaris; details: read-out: PPB (converted)
[12] = Solubility of the compound at pH 8.2 using amorphous form of sample; type: physicochemical; details: buffer
Cytochrome P450 3A4 = Cytochrome P450 3A4 (Homo sapiens, UniProt P08684); assay: Inhibition of CYP3A4 (unknown origin); type: ADME
Chain of Cytochrome P450 3A4 (P08684 whole entry): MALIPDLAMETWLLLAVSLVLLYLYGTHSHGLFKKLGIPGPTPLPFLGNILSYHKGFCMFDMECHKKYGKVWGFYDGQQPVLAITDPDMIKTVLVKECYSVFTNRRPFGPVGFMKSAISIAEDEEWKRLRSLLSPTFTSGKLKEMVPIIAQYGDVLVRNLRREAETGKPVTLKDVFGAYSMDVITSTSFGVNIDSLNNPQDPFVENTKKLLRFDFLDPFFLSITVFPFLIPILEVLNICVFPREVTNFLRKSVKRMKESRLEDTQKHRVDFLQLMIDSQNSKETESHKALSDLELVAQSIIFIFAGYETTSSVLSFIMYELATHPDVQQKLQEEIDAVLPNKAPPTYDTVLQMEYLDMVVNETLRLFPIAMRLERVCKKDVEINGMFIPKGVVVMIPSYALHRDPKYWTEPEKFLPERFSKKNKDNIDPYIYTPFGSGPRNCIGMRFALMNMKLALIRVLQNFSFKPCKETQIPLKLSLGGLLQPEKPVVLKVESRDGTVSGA

Cytochrome P450 2C19 = Cytochrome P450 2C19 (Homo sapiens, UniProt P33261); assay: Inhibition of CYP2C19 (unknown origin); type: ADME
Chain of Cytochrome P450 2C19 (P33261 whole entry): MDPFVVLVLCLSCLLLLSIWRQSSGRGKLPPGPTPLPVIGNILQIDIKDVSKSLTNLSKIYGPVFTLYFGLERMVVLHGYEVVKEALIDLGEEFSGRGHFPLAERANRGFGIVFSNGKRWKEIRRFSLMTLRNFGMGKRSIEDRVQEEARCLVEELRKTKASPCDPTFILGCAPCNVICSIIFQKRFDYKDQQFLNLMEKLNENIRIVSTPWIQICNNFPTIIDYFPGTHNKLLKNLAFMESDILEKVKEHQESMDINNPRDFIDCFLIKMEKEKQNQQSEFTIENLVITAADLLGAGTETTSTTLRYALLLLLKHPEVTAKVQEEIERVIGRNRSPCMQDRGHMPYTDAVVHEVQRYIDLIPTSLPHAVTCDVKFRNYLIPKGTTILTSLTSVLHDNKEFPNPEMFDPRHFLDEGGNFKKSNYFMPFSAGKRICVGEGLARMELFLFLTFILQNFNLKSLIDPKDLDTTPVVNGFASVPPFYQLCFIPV

Cytochrome P450 2C9 = Cytochrome P450 2C9 (Homo sapiens, UniProt P11712); assay: Inhibition of CYP2C9 (unknown origin); type: ADME
Chain of Cytochrome P450 2C9 (P11712 whole entry): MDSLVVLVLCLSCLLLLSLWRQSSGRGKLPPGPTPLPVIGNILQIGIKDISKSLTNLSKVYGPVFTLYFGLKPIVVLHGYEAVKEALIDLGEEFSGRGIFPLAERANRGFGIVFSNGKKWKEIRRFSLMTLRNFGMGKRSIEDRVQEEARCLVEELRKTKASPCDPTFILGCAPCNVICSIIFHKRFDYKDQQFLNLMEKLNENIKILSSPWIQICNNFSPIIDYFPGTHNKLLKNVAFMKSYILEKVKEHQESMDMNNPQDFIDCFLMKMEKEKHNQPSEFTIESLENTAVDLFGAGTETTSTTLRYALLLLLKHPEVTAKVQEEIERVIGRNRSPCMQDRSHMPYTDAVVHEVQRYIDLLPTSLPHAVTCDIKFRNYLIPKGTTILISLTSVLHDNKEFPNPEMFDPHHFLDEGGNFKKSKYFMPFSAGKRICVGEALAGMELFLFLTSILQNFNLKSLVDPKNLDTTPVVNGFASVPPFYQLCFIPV

Cytochrome P450 1A2 = molecular target: T4, Cytochrome P450 1A2 (Homo sapiens, UniProt P05177); assay: Inhibition of CYP1A2 (unknown origin); type: ADME
T4 sequence (P05177 whole entry): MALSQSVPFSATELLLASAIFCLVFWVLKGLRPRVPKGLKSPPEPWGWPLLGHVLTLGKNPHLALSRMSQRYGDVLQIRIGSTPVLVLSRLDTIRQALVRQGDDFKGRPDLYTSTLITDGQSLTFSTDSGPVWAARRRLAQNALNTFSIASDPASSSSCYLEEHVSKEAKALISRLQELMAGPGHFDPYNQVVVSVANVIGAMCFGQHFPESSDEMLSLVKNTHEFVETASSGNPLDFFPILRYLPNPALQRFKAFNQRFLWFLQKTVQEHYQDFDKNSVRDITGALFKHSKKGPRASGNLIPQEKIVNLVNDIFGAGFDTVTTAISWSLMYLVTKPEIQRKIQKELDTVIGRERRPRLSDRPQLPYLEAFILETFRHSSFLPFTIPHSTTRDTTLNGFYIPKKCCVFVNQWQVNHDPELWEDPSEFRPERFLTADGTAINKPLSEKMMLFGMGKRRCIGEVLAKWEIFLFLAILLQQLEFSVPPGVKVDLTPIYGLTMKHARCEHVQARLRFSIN

[13] = Genotoxicity in Salmonella typhimurium TA98 by mini AMES test; type: toxicity; details: salmonella enterica subsp. enterica serovar typhimurium
[14] = Genotoxicity in Salmonella typhimurium TA100 by mini AMES test; type: toxicity; details: salmonella enterica subsp. enterica serovar typhimurium
[15] = Genotoxicity in Salmonella typhimurium TA1535 by mini AMES test; type: toxicity; details: salmonella enterica subsp. enterica serovar typhimurium
[16] = Genotoxicity in Salmonella typhimurium TA1537 by mini AMES test; type: toxicity; details: salmonella enterica subsp. enterica serovar typhimurium
Homo sapiens = species: Homo sapiens; assay: Selectivity ratio of antagonist activity at amylin-1 receptor (unknown origin) to antagonist activity at human CGRP receptor in human SK-N-MC cells; type: cell-based
[17] = AUC (infinity) in rat at 1 mg/kg, sc; type: ADME, organism-based; parameters: dose 1 mg/kg, route subcutaneous, time infinity; details: in vivo
[18] = Tmax in cynomolgus monkey at 0.5 mg/kg, sc; type: ADME, organism-based, Macaca fascicularis; details: in vivo
[19] = Tmax in cynomolgus monkey at 0.013 mg/kg, sc; type: ADME, organism-based, Macaca fascicularis; details: in vivo
[20] = Tmax in rat at 1 mg/kg, sc; type: ADME, organism-based; details: in vivo
[21] = Half life in cynomolgus monkey at 0.5 mg/kg, sc; type: ADME, organism-based, Macaca fascicularis; details: in vivo
[22] = Half life in cynomolgus monkey at 0.013 mg/kg, sc; type: ADME, organism-based, Macaca fascicularis; details: in vivo
[23] = Half life in rat at 1 mg/kg, sc; type: ADME, organism-based; details: in vivo
[24] = AUC (infinity) in cynomolgus monkey at 0.013 mg/kg, sc; type: ADME, organism-based, Macaca fascicularis; parameters: dose 0.013 mg/kg, route subcutaneous, time infinity; details: in vivo
[25] = Oral bioavailability in rat at 1 mg/kg; type: ADME, organism-based; details: in vivo
[26] = Oral bioavailability in cynomolgus monkey at 0.013 mg/kg; type: ADME, organism-based, Macaca fascicularis; details: in vivo
[27] = tested on: CALCRL/RAMP2 (adrenomedullin AM1 receptor) (Homo sapiens); assay: Antagonist activity at human adrenomedullin-1 receptor

SMILES: Cc1cc(C[C@@H](NC(=O)N2CCC3(CC2)OC(=O)Nc2ncccc23)C(=O)N[C@@H](CC2CCNCC2)C(=O)N2CCN(c3ccncc3)CC2)cc2cn[nH]c12 [HTL-0022562]
- Ki [1]: 31.6 pM
- pKb [2]: 10.2
- pKi [3]: 11.3
- pKb (Canis lupus familiaris): 7.2
- pKb [4]: < 7
- inhibition at 300 µM (hERG (KCNH2)): 6%
- efflux ratio [5]: > 2.7
- degraded at 168 h [6]: 0.4%
- half-life [7]: > 5 h
- inhibition [8]: 65%
- EC50 [9]: 0.9 µM
- fraction unbound [10]: 0.59
- fraction unbound [11]: 0.77
- solubility [12]: 9000 µg/mL (≈ 11.8 mM)
- IC50 (Cytochrome P450 3A4): > 50.1 µM
- IC50 (Cytochrome P450 2C19): > 50.1 µM
- IC50 (Cytochrome P450 2C9): > 50.1 µM
- IC50 (Cytochrome P450 1A2): > 50.1 µM
- Activity [13]: Non-Toxic
- Activity [14]: Non-Toxic
- Activity [15]: Non-Toxic
- Activity [16]: Non-Toxic
- Selectivity ratio (Homo sapiens): > 8000
- AUC(0-inf) [17]: 1280 ng·h/mL
- Tmax [18]: 0.8 h
- Tmax [19]: 0.8 h
- Tmax [20]: 0.7 h
- half-life [21]: 3.6 h
- half-life [22]: 3.5 h
- half-life [23]: 2.6 h
- AUC(0-inf) [24]: 81 ng·h/mL
- bioavailability [25]: 123%
- bioavailability [26]: 68%
- pKb [27]: < 5.7
